The target in one test is McpP. Also on record: method as in ref (6) (a number printed in a supplementary file, which may have a reference list of its own: not looked up in the article's list). To be noted: ITC, purified recombinant LBD; ref (6); cited from earlier work. (In general: Isothermal titration calorimetry measures the heat released or taken up as one component is titrated into another.)
The target of a further test is McpA. Further details: method as in ref (3) (a number printed in a supplementary file, which may have a reference list of its own: not looked up in the article's list). To be noted: ITC, purified recombinant LBD; ref (3); cited from earlier work.
In a further test the target is McpH. Further details: method as in ref (2) (a number printed in a supplementary file, which may have a reference list of its own: not looked up in the article's list). Particulars: ITC, purified recombinant LBD; ref (2); cited from earlier work.
The next test addresses T1, PcaY_PP-LBD (Pseudomonas putida, UniProt Q88JK6).
T1 construct: His-tag (from the pET28b vector; inferred from NdeI/BamHI cloning and HisTrap purification) (N); made in house; host or cells: Escherichia coli BL21 (DE3)
Nature of the test: biochemical. The test is classed as binding, Pseudomonas putida KT2440. To be noted: for KD: ITC at 25°C, 25 μM protein, One Binding Site model, means and SD of three experiments. How it is done:
Experiments were carried out at 25°C using a VP-ITC titration calorimeter (Microcal Inc., Northampton, Massachusetts). […] Obtained data were corrected with the heat changes measured for the injection of ligand into buffer. Data were normalized with the protein concentration (Bradford assay) and fitted with the “One Binding Site” model of the MicroCal version of the ORIGIN 7.0 software (OriginLab Corporation, Northampton, MA, United States), leaving all parameters floating.

Test [1] deals with Pseudomonas putida KT2440. Nature of the test: Quantitative capillary chemotaxis assay. It counts as cell-based. Particulars: 30 min, wild type KT2440. The protocol:
Subsequently, the cells were re-suspended in the same buffer, adjusted to an OD660 of 0.15 and 230 μl aliquots of this bacterial culture were placed into 96-well plates. For the quantitative assays, one-microliter capillary tubes (Microcaps, Drummond Scientific, Ref. […]) were heat-sealed at one end and filled with either the chemotaxis buffer (negative control) or chemotaxis buffer containing the chemoeffector. The capillaries were immersed into the bacterial suspension and incubated for 30 min at room temperature. Capillaries were subsequently removed from the bacterial suspension, rinsed with sterile water and the content expelled into 1 ml of M9 medium. Serial dilutions were plated onto LB medium (containing the appropriate antibiotics) and the number of colony forming units was determined. In all cases, data were corrected with the number of cells that swam into buffer containing capillaries.

In a further test the test system is P. putida KT2440. Nature of the test: Growth in M9 minimal medium with ligand as sole C-source. It counts as cell-based, Pseudomonas putida KT2440. Particulars: 10 mM (2 mM for poorly soluble) ligand. How it is done:
P. putida KT2440R was grown in the same medium supplemented with rifampicin (10 μg ml^-1). […] When necessary, the pH of the medium was adjusted to 7.0 prior to inoculation. Bacterial growth rates were monitored by measuring the OD660 until cultures reached the stationary phase. The growth rate during the exponential growth (m) was calculated according to m = (LnOD2-LnOD1).(t2-t1)^-1, where OD2/t2 and OD1/t1 correspond to the OD660/time at the end and the beginning of the time interval. The generation time (G) was defined by G = Ln2 μ^-1. […] Normalized growth yield per carbon source after 24 h was determined applying correlation factors between cell dry weight and OD660 determined in batch cultures and assuming that all the carbon source was consumed during growth. Data were fitted by linear least squares regression or submitted to the chi-squared test with Yates correction using in both cases the Graph Pad Prism v7.02 software.

For a further test, the target named is McpU. Further details: method as in ref (3) (a number printed in a supplementary file, which may have a reference list of its own: not looked up in the article's list). To be noted: ITC, purified recombinant LBD; ref (3); cited from earlier work.

T1 sequence (Q88JK6 44-196): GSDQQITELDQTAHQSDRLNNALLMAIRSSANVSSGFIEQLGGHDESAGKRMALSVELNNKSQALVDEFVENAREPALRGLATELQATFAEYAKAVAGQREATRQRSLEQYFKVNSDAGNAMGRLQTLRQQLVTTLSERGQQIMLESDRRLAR

On to `C[C@H](O)C(=O)O` [L-lactate], for which, at McpP, the Kd is 107 µM. Consider `N[C@@H](Cc1ccc(O)cc1)C(=O)O` [L-Tyr], for which the Kd on McpA is 12.1 µM. `O=c1[nH]c(=O)c2[nH]c(=O)[nH]c2[nH]1` [Uric acid]: the Kd on McpH is 1.3 µM.

Take `O=C(O)c1ccc([N+](=O)[O-])cc1` [4-NBA, 4-Nitrobenzoate]: at PcaY_PP-LBD, the Kd was found to be 50 µM. On PcaY_PP-LBD (ITC), the “∆G” value is -5.86 ± 0.06 kcal/mol and the “∆H” value is given as -13.8 ± 1.2 kcal/mol. For `Cc1cccc(C(=O)O)c1` [3-MBA, 3-Methylbenzoate], in that order: 32 µM, -6.12 ± 0.04 kcal/mol and -21.9 ± 1.1 kcal/mol. Compound `O=C(O)c1ccccc1` [Benzoate, benzoate] came in with a Kd on PcaY_PP-LBD of 90 ± 8 µM. Also, on PcaY_PP-LBD (ITC), the “∆G” value is listed as -5.51 ± 0.06 kcal/mol and the “∆H” value was -13.3 ± 0.5 kcal/mol. The chemotactic response entry in test [1] is listed as “much weaker”. For the same compound, in the test on P. putida KT2440, the “capacity to support growth as sole carbon source” value (“capacity to support growth” for short) is “supported bacterial growth”.

Consider `CC[C@H](C)[C@H](N)C(=O)O` [L-Ile], for which the Kd at McpA was 85 µM.

`O=C(O)c1ccc(O)cc1` [4-HBA, 4-hydroxybenzoate] came in with a Kd at PcaY_PP-LBD of 7.2 µM. On PcaY_PP-LBD (ITC), the “increase in affinity as compared to benzoate” value is listed as “around 12 fold”, the “∆G” value is given as -7.01 ± 0.08 kcal/mol and the “∆H” value is -33.2 ± 1.4 kcal/mol. The “capacity to support growth” value with P. putida KT2440 is reported as “supported bacterial growth”. Take `N[C@@H](CO)C(=O)O` [L-Ser]: the Kd on McpA is 43 µM. For `N=C(N)NCCC[C@H](N)C(=O)O` [L-Arg], the dissociation constant Kd at McpA was 1.2 µM. Consider `Nc1ccc(C(=O)O)cc1` [4-ABA, 4-aminobenzoate], for which the affinity at PcaY_PP-LBD, expressed as Kd, was 98 µM. Moreover, at PcaY_PP-LBD (ITC), the “∆G” value is -5.46 ± 0.12 kcal/mol and the “∆H” value is listed as -11.0 ± 0.4 kcal/mol. Besides, in test [1], the chemotactic response entry was “much weaker”.

As to `NCCCCN` [Putrescine], the Kd on McpU was 2 µM.

On to `N[C@@H](CS)C(=O)O` [L-Cys], for which, on McpA, the Kd was 0.6 µM. Take `O=C(O)c1ccccc1Cl` [2-CBA, 2-chlorobenzoate]: the KD result at PcaY_PP-LBD is listed as “No binding”. The chemotactic response result in test [1] was “did not induce a chemotactic response”. `CSCC[C@H](N)C(=O)O` [L-Met]: the Kd on McpA was 5.8 µM. Take `Nc1ncnc2[nH]cnc12` [Adenine]: the Kd at McpH was 2.4 µM. On to `O=C(O)CCCCC(=O)O` [Adipate, adipate], for which the KD entry is “No binding” at PcaY_PP-LBD and “No binding heats” on PcaY_PP-LBD (listed as adipate). In the case of `NCCCCNCCCN` [Spermidine], the dissociation constant (Kd) at McpU is 4.5 µM.

With `O=C(O)CCC(=O)O` [Succinate, succinate], the KD entry on PcaY_PP-LBD is “did not show any binding”. `CC(C)[C@H](N)C(=O)O` [L-Val]: the Kd on McpA is 373 µM. In the case of `COc1cc(C=O)ccc1O` [Vanillin, vanillin], the KD entry on PcaY_PP-LBD is “No binding”; at PcaY_PP-LBD (listed as vanillin) it was “absence of binding”. Take `CCC(=O)O` [Propionate]: the Kd at McpP was 34 µM.

As to `NCC(=O)O` [Gly], the dissociation constant (Kd) at McpA was 35 µM.

With `O=C(O)c1cccc(O)c1` [3-HBA, 3-hydroxybenzoate], the KD result on PcaY_PP-LBD was “No Binding”. Consider `O=C(O)c1cccc([N+](=O)[O-])c1` [3-NBA, 3-Nitrobenzoate], for which the Kd on PcaY_PP-LBD came out at 61 µM. At PcaY_PP-LBD (ITC), the “∆G” value is recorded as -5.74 ± 0.06 kcal/mol and the “∆H” value is given as -17.5 ± 0.3 kcal/mol. With `Cc1ccccc1C(=O)O` [2-MBA], the KD result on PcaY_PP-LBD is listed as “No binding”. On to `Nc1ccccc1C(=O)O` [2-ABA, 2-Aminobenzoate], for which binding at PcaY_PP-LBD was put at a Kd of 89 µM. At PcaY_PP-LBD (ITC), the “∆G” value is -5.52 ± 0.07 kcal/mol and the “∆H” value is listed as -18.0 ± 1.8 kcal/mol.

On to `O=c1[nH]cnc2nc[nH]c12` [Hypoxanthine], for which the Kd at McpH is 3.3 µM. Regarding `NC(=O)C[C@H](N)C(=O)O` [L-Asn], the Kd at McpA was 4.3 µM. In the case of `O=C(O)C1=CC(=O)C(O)C(O)C1` (stereo not shown) [3-Dehydroshikimate, 3-dehydroshikimate], the Kd at PcaY_PP-LBD was 6 µM. In addition, at PcaY_PP-LBD (ITC), the “∆G” value is on record as -7.11 ± 0.03 kcal/mol and the “∆H” value is -19.9 ± 0.3 kcal/mol. Moreover, in the test with P. putida KT2440, the “capacity to support growth” value was “supported bacterial growth”. `Nc1nc2nc[nH]c2c(=O)[nH]1` [Guanine]: the Kd on McpH was 4.3 µM. With `O=C(O)c1cccc(Cl)c1` [3-CBA, 3-chlorobenzoate], the affinity on PcaY_PP-LBD, expressed as Kd, was 34 µM. Besides, on PcaY_PP-LBD (ITC), the “∆G” value was -6.09 ± 0.03 kcal/mol and the “∆H” value was -13.2 ± 0.3 kcal/mol. As for `N[C@@H](Cc1ccccc1)C(=O)O` [L-Phe], at McpA, the Kd is 2.3 µM. `Nc1cccc(C(=O)O)c1` [3-ABA, 3-aminobenzoate] returned a Kd at PcaY_PP-LBD of 138 µM. Moreover, on PcaY_PP-LBD (ITC), the “∆G” value is given as -5.26 ± 0.07 kcal/mol and the “∆H” value was -16.4 ± 1.2 kcal/mol. For `NCCCCCN` [Cadaverine], on McpU, the Kd is 22 µM.

Consider `O=C(O)c1ccccc1[N+](=O)[O-]` [2-NBA], for which the KD entry on PcaY_PP-LBD is on record as “No binding”. `C[C@H](N)C(=O)O` [L-Ala]: the Kd on McpA is 13 µM. Regarding `NC(=O)CC[C@H](N)C(=O)O` [L-Gln], the Kd on McpA is 5.5 µM.

As for `O=c1[nH]c(=O)c2nc[nH]c2[nH]1` [Xanthine], the Kd at McpH is 2.7 µM. Consider `O=C(O)c1ccc(O)c(O)c1` [Protocatechuate, protocatechuate], for which the Kd on PcaY_PP-LBD came out at 6.4 µM. Further, on PcaY_PP-LBD (ITC), the “∆G” value is -7.08 ± 0.04 kcal/mol and the “∆H” value is given as -22.9 ± 1.2 kcal/mol. Moreover, the chemotactic response result in test [1] is given as “much weaker”. For the same compound, the “capacity to support growth” value in the test on P. putida KT2440 was “supported bacterial growth”.

With `COc1cc(C(=O)O)ccc1O` [Vanillate, vanillate], the Kd on PcaY_PP-LBD amounted to 11 µM. On PcaY_PP-LBD (ITC), the “∆G” value is on record as -6.70 ± 0.03 kcal/mol and the “∆H” value is -12.8 ± 1.7 kcal/mol. Consider `O=Cc1ccc(O)cc1` [4-Hbenzaldehyde, 4-hydroxybenzaldehyde], for which the KD entry on PcaY_PP-LBD is given as “No Binding”; on PcaY_PP-LBD (listed as 4-hydroxybenzaldehyde) it was “devoid of binding”.

Take `O=C(O)c1ccccc1O` [2-HBA, 2-hydroxybenzoate]: the Kd at PcaY_PP-LBD was 24 µM. At PcaY_PP-LBD (ITC), the “∆G” value is on record as -6.30 ± 0.03 kcal/mol and the “∆H” value is recorded as -21.0 ± 0.6 kcal/mol. Besides, in test [1], the chemotactic response entry is reported as “much weaker”.

With `CC(=O)C(=O)O` [Pyruvate], the Kd at McpP was 39 µM. For the compound `c1ncc2nc[nH]c2n1` [Purine], the Kd at McpH is 2.4 µM. On to `Cc1ccc(C(=O)O)cc1` [4-MBA, 4-Methylbenzoate], for which the dissociation constant (Kd) at PcaY_PP-LBD amounted to 41 µM. Moreover, on PcaY_PP-LBD (ITC), the “∆G” value was -5.97 ± 0.12 kcal/mol and the “∆H” value is on record as -13.2 ± 0.9 kcal/mol. For `O=C(O)CC(O)C(=O)O` (stereo not shown) [Malate, malate], the KD result on PcaY_PP-LBD is listed as “did not show any binding”.

As a reminder, the Kd is the equilibrium constant for the complex coming apart.
